This is an account of results in BindingDB's records for doi:10.1021/jm0203130 (Merck Research Laboratories, 2002).

Sequence of Integrin alpha-IIb/beta-3 (P05106 27-788 limits assumed): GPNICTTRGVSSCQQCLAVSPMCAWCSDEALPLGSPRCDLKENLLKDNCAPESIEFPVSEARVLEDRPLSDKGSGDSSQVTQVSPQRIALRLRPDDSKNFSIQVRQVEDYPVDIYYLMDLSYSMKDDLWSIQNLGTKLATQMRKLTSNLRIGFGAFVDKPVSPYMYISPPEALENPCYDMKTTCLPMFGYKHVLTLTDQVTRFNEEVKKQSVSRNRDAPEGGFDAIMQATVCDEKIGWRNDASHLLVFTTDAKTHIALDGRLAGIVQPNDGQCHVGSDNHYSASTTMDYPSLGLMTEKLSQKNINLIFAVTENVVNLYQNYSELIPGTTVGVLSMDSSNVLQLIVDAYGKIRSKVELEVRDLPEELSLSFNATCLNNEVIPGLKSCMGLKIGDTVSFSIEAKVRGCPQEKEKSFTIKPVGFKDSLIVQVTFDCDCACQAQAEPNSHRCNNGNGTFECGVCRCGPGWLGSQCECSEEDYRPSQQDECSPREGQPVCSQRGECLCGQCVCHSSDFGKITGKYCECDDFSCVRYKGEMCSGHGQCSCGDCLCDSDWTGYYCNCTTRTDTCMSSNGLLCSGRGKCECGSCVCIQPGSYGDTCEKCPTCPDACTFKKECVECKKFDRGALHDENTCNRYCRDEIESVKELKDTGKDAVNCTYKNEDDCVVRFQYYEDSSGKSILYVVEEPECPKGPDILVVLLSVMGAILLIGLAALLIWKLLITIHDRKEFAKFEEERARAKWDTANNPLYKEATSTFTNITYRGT
Sequence of Integrin alpha-IIb/beta-3 (P08514 32-887 limits assumed): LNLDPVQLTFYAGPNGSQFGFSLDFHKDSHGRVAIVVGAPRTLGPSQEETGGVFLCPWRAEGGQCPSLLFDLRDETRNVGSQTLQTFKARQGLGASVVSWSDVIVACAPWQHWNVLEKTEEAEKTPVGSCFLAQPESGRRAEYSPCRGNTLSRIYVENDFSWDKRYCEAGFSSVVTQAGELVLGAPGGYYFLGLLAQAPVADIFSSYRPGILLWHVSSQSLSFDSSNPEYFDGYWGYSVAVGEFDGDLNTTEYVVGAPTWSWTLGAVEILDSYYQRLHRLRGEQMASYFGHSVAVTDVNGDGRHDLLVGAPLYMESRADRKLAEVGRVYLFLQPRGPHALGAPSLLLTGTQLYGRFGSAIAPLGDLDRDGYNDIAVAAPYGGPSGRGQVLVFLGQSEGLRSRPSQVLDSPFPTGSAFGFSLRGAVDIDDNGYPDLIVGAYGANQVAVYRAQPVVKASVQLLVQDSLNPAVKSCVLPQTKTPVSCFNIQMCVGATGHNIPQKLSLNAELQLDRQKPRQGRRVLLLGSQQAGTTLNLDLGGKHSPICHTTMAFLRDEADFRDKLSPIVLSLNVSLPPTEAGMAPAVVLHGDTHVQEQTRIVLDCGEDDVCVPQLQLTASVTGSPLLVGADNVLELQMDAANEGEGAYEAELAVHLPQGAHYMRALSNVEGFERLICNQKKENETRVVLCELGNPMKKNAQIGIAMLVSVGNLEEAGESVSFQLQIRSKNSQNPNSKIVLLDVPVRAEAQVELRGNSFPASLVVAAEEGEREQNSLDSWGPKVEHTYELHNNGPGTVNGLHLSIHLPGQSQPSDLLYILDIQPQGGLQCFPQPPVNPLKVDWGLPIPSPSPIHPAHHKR
Sequence of Integrin alpha-IIb/beta-3 (P08514 891-1039 limits assumed): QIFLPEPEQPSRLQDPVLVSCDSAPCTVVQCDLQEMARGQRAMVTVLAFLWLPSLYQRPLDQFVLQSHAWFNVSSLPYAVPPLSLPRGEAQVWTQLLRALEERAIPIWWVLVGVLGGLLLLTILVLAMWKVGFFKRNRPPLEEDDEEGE

The experiment addresses Integrin alpha-IIb/beta-3 (Homo sapiens, UniProt P08514+P05106). The experiment is described as follows: Inhibition of integrin alphaIIb-beta3 in platelet aggregation assay.
In turn, `O=C(NC[C@H](NS(=O)(=O)c1ccccc1)C(=O)O)c1ccc(CCc2ccc3c(n2)NCCC3)cc1` [2-Benzenesulfonylamino-3-{4-[2-(5,6,7,8-tetrahydro-[1,8]naphthyridin-2-yl)-ethyl]-benzoylamino}-propionic acid] registered an IC50 of 0.26 µM. The result for `O=C(O)C[C@H](NC(=O)CN1CCC(CCc2ccc3c(n2)NCCC3)C1=O)c1cccnc1` (some centres not stated) [3-(2-{2-Oxo-3-[2-(5,6,7,8-tetrahydro-[1,8]naphthyridin-2-yl)-ethyl]-pyrrolidin-1-yl}-acetylamino)-3-pyridin-3-yl-propionic acid] reads greater than 10 µM; that for `O=C(O)C[C@H](NC(=O)CN1CCC(CCc2ccc3c(n2)NCCC3)C1=O)c1cnc2ccccc2c1` (some centres not stated) [3-(2-{2-Oxo-3-[2-(5,6,7,8-tetrahydro-[1,8]naphthyridin-2-yl)-ethyl]-pyrrolidin-1-yl}-acetylamino)-3-quinolin-3-yl-propionic acid], 0.776 µM; that for `O=C(O)CCNC(=O)CNC(=O)CCCc1ccc2c(n1)NCCC2` [3-[2-(4-5,6,7,8-Tetrahydro-[1,8]naphthyridin-2-yl-butyrylamino)-acetylamino]-propionic acid], greater than 10 µM. In the case of `Nc1cccc(CCc2ccc(C(=O)NC[C@H](NS(=O)(=O)c3ccc(I)cc3)C(=O)O)cc2)n1` [3-{4-[2-(6-Amino-pyridin-2-yl)-ethyl]-benzoylamino}-2-(4-iodo-benzenesulfonylamino)-propionic acid] it was 1.6 µM.

Compound `O=C(O)C[C@H](NC(=O)CNC(=O)CCCc1ccc2c(n1)NCCC2)c1cccnc1` [(S)-3-Pyridin-3-yl-3-[2-(4-5,6,7,8-tetrahydro-[1,8]naphthyridin-2-yl-butyrylamino)-acetylamino]-propionic acid] displayed an IC50 greater than 10 µM. Compound `CNc1cccc(CCOc2ccc3c(c2)CN(CC(F)(F)F)C(=O)[C@H](CC(=O)O)C3)n1` [[(S)-8-[2-(6-Methylamino-pyridin-2-yl)-ethoxy]-3-oxo-2-(2,2,2-trifluoro-ethyl)-2,3,4,5-tetrahydro-1H-benzo[c]azepin-4-yl]-acetic acid] yielded an IC50 greater than 10 µM.
